Measured values reported in PMC12295927, “Design, Synthesis, and Testing of 1,2,3-Triazolo-Quinobenzothiazine Hybrids for Cytotoxic and Immunomodulatory Activity” (International Journal of Molecular Sciences, 2025).

What was measured:
Type in all cases: cell-based, Human
HCT116 cells = assay: DAPI staining for nuclear morphology and apoptosis, HCT116; details: HCT116, 100 μM, 24 h
Procedure: (§1) The BEAS-2B, NHDF, HCT116, MCF7, SH-SY5Y, A549 cell lines studied were cultured in DMEM medium supplemented with 10% fetal bovine serum (FBS) and 1% penicillin/streptomycin solution. Cells were seeded at 1 × 10^4 per well in 96-well plates and incubated for 24 h under standard culture conditions: temperature 37 °C, 5% CO2, 95% humidity. After 24 h, compounds from the MJ1–MJ20 group were added to individual wells at different concentrations (6.25 µM, 12.5 µM, 25 µM, 50 µM, 100 µM). The control consisted of cells grown only in medium without the addition of chemical compounds. After 24 h of incubation, cells were observed under a microscope (JuLI™ FL Live fluorescence microscope from NanoEntek, Martinsried, Germany), documenting morphological changes. Observations included visual assessments of confluence, cell shape, arrangement, and interaction with the substrate. The Supplementary Materials include a comprehensive collection of microscopic images showing the morphology of the tested cell lines (BEAS-2B, NHDF, HCT116, MCF7, SH-SY5Y, A549) after 24 h of incubation with compounds MJ1–MJ20. These images illustrate the effects of the compounds on cell shape, density, and adhesion. The images are provided as a separate PDF file for further reference. For apoptosis observations, the samples of BEAS-2B and HCT116 cells were additionally fixed with 4% paraformaldehyde (PFA) after 24 h of incubation with, or without selected compounds (Section 2.6) and DAPI stained for apoptotic bodies visualization (Fluoromount-G™ medium with DAPI dye; Thermo Fisher Scientific, Waltham, MA, USA). The samples were visualized using fluorescent microscopy AXIO IMAGER M1 by ZEISS, DAPI channel and 20x magnification. The percent of counted cells with apoptotic nucleus was defined in comparison to all visualized events.
(§2) BEAS-2B and HCT116 cells were seeded into culture plates at 5 × 10^3 cells per well using 0.5 mL of RPMI-1640 medium (for BEAS-2B) or DMEM (for HCT116). The plates were incubated for 24 h at 37 °C in an atmosphere containing 5% CO2. After incubation, the medium was removed and compounds MJ2, MJ8, MJ15, and MJ19 were added in the appropriate medium at a concentration of 100 μM. The plates were incubated for 24 h at 37 °C in an atmosphere containing 5% CO2. After incubation, the medium was removed, and 500 µL of 4% paraformaldehyde (PFA) was added to each well to fix the cells. Incubation continued for 10 min at room temperature. After removal of the PFA, the wells were rinsed with 500 µL of PBS (5 min of incubation) and then with distilled water. The cells were allowed to dry at room temperature. After drying, the cells were stained with DAPI. Observations were made using a fluorescence microscope AXIO IMAGER M1 by ZEISS at 20x magnification.

BEAS-2B cells = assay: DAPI staining for nuclear morphology and apoptosis, BEAS-2B; details: 100 μM, 24 h
Procedure: as §1, §2

MDM2 gene = assay: RT-qPCR MDM2 gene expression in BEAS-2B; details: 24 h; for fold induction at 100 µM: Homo sapiens, reference gene RPL41, vs untreated control, read-out: Relative level of expression, MDM2 gene
Procedure: Real-time polymerase chain reaction was performed for the reference gene RPL41 (ribosomal protein L41) and the tested genes: BCL2, AIFM2, MDM2, IL6 and IL8. […] The BEAS-2B line was selected for the experiment. The expression level of selected genes was measured after 24 h of incubation with the tested substances MJ1–MJ20 at a concentration of 100 μM (Table 3).
The RT-qPCR experiment was performed for the BEAS-2B cell line. In this experiment, the MDM2 gene was studied and RPL41 was used as reference gene (Figure 15).
Gene expression studies used quantitative RT-qPCR to assess the effect of the tested quinobenzothiazines (MJ1–MJ20) on the expression of apoptosis-related genes (BCL2, AIFM2, MDM2) and pro-inflammatory cytokines (IL6, IL8) (Table 4).
BEAS-2B and HCT116 cells were seeded in 6-well plates at 2 × 10^5 cells per well and cultured in RPMI-1640 (BEAS-2B) or DMEM (HCT116) medium supplemented with 10% FBS and 1% penicillin/streptomycin at 37 °C, 5% CO2 and 95% humidity. After 24 h of incubation, the tested compounds were added at a concentration of 100 µM. After 24 h, the medium was removed from the cells, washed with PBS solution, 0.5 mL of trypsin was added per well and after 5 min it was neutralized with medium. The obtained cell suspension was centrifuged for 3 min at 2000 rpm, the supernatant was removed, and the obtained pellet was suspended in 400 µL of phenozol. Samples were frozen at −20 °C and stored until further experiment and RNA isolation.
Total RNA was isolated from cells using the A&A Biotechnology Total RNA Mini kit according to the manufacturer’s protocol. RNA quality and quantity were assessed using a NanoDrop 2000 spectrophotometer at 260/280 nm. Reverse transcription was performed using the protocol (EURx NG dART RT Kit) to obtain cDNA. After incubation, samples were placed in a freezer (−20 °C) and stored until further analysis.
The experiment was performed according to the protocol (Brilliant III Ultra Fast SYBR® Green QPCR Master Mix, Quick Reference Guide for the Bio-Rad CFX96 Real-Time PCR Detection System). RT-qPCR reaction was performed using specific primers for target genes (BCL2, AIFM2, MDM2, IL6, IL8). Gene expression was normalized to the expression of the reference gene RPL41. Reaction profiles and results were performed using Bio-Rad CFX Maestro 1.1 software from Bio-Rad. Analysis and calculations of the results obtained during RT-qPCR were performed using Microsoft Excel.
The results were analyzed using the R = 2^−ΔΔCt method, which allows for determining the relative level of gene expression (R) compared to the control. Each experiment was performed in three technical and biological replicates. RT-qPCR allowed for precise assessment of changes in the expression of genes related to the processes of apoptosis and inflammatory response under the influence of quinobenzothiazines, which allowed for identifying their potential mechanisms of action at the molecular level.

| SMILES | Apoptotic changes in cell nuclei (DAPI) (HCT116 cells) | Apoptotic changes in cell nuclei (DAPI) (BEAS-2B cells) | fold induction at 100 µM (MDM2 gene) | MDM2 expression increase (MDM2 gene; 100 μM, compared to control) [fold] |
| --- | --- | --- | --- | --- |
| Fc1ccc(Cn2cc(CN3c4ccccc4Sc4cc5ccccc5nc43)nn2)cc1 [MJ2, 6-((1-(4-Fluorobenzyl)-1H-1,2,3-triazol-4-yl)methyl)-quino[3,2-b]benzo[1,4]thiazine] | no significant apoptotic changes | no significant apoptotic changes | 6.3 |  |
| Clc1ccc2c(c1)Sc1cc3ccccc3nc1N2Cc1cn(CSc2ccccc2)nn1 [MJ15, 9-Chloro-6-((1-((phenylthio)methyl)-1H-1,2,3-triazol-4-yl)methyl)-quino[3,2-b]benzo[1,4]thiazine] | no significant apoptotic changes | no significant apoptotic changes | 6.4 |  |
| CSc1ccc2c(c1)Sc1cc3ccccc3nc1N2Cc1cn(Cc2ccc(C#N)cc2)nn1 [MJ19, 4-((4-((9-Methylthioquino[3,2-b]benzo[1,4]thiazin-6-yl)methyl)-1H-1,2,3-triazol-1-yl)methyl)benzonitrile] | no significant apoptotic changes | no significant apoptotic changes | 10.3 | 10.3 |
| Fc1ccc2c(c1)Sc1cc3ccccc3nc1N2Cc1cn(Cc2ccc(Cl)cc2)nn1 [MJ8, 9-Fluoro-6-[(1-(4-chlorobenzyl)-1H-1,2,3-triazol-4-yl)methyl]-quino[3,2-b]benzo-[1,4]thiazine] | no significant apoptotic changes | no significant apoptotic changes | 8.1 |  |
